Reference: publication PMC6257796, “Effects of Eupatilin and Jaceosidin on Cytochrome P450 Enzyme Activities in Human Liver Microsomes” (Molecules, 2010)

What was measured:
Type in all cases: in vitro ADME
CYP2A6 = target: T1, CYP2A6 (Homo sapiens, UniProt P11509); experiment: Cocktail probe assay in pooled human liver microsomes: coumarin 7-hydroxylation (IC50); settings: pooled human liver microsomes, 2.5 μM coumarin
T1 construct: pooled human liver microsomes (0.25 mg/mL); tissue BD Gentest Co. H161; host or cells: pooled human liver microsomes
T1 sequence (P11509 1-494): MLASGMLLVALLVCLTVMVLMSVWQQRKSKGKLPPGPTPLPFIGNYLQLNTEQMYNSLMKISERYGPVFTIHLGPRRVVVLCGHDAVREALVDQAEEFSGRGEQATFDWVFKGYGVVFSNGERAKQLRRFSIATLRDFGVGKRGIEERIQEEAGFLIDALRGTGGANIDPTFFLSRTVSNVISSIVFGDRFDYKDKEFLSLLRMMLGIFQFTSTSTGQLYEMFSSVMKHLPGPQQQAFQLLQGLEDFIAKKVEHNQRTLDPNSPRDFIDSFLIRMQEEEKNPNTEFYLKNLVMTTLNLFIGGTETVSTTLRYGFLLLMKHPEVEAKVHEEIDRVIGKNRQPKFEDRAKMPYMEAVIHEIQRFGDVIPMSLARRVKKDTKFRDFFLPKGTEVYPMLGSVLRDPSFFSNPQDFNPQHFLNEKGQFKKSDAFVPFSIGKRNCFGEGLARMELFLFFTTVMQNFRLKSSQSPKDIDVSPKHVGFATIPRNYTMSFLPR
Experimental: (§1) The inhibitory potencies (IC50 values) of eupatilin and jaceosidin were determined with CYP assays in the presence and absence of eupatilin and jaceosidin (final concentrations of 0.1−100 μM with acetonitrile concentration of less than 0.5% v/v) using pooled human liver microsomes. Phenacetin O-deethylase, coumarin 7-hydroxylase, amodiaquine N-deethylase, diclofenac hydroxylase, [S]-mephenytoin 4'-hydroxylase, bufuralol 1'-hydroxylase, and midazolam 1'-hydroxylase activities were determined as probe activities for CYP1A2, CYP2A6, CYP2C8, CYP2C9, CYP2C19, CYP2D6, and CYP3A, respectively, using cocktail incubation and tandem mass spectrometry. The incubation mixtures were prepared in a total volume of 200 μL as follows: pooled human liver microsomes (0.25 mg/mL), 1.3 mM NADPH, 3.3 mM MgCl2, 50 mM potassium phosphate buffer (pH 7.4), and a cocktail of probe substrates and various concentrations of eupatilin or jaceosidin (0.1−100 μM). […] After a 3 min preincubation at 37 °C, the reactions were initiated by adding NADPH and incubated for 20 min at 37 °C with shaking in a water bath. After incubation, the reaction was stopped by placing the tubes on ice and adding 100 μL of ice-cold acetonitrile containing internal standards (0.5 μg/mL [^13C,^15N]-acetaminophen for acetaminophen and N-desethylamodiaquine, 0.5 μg/mL [^2H5]-7-hydroxycoumarin for 7-hydroxycoumarin, 2.0 μg/mL [^13C6]-4-hydoxydiclofenac for 4-hydoxydiclofenac, 0.5 μg/mL [^2H3]-4'-hydoxymephenytoin for 4-hydoxymephenytoin and 1'-hydroxymidazolam, and 0.5 μg/mL [^2H7]-1'-hydroxybufuralol for 1'-hydroxybufuralol). The incubation mixtures were then centrifuged at 10,000× g for 5 min. All incubations were performedin triplicate.
(§2) To evaluate the effect of preincubation on inhibitory potency, eupatilin and jaceosidin (0.1−100 μM) were preincubated for 30 min with NADPH, buffer, and microsomes before the addition of the CYP probe substrates. The reaction was started by addition of the cocktail of probe substrates.
(§3) All seven metabolites produced from the cocktail of CYP isoform-specific substrates were simultaneously determined by LC/MS/MS. The system consisted of a tandem quadrupole mass spectrometer (TSQ Quantum Access, ThermoFisher Scientific, CA, USA) coupled with a Nanospace SI-2 LC system. The separation was performed on an Atlantis dC18 column (5 μm, 2.1 mm i.d. × 100 mm, Waters, Waltham, MA, USA) using the gradient elution of a mixture of 5% methanol in 0.1% formic acid (mobile phase A) and 95% methanol in 0.1% formic acid (mobile phase B) at a flow rate of 0.25 mL/min: 10% mobile phase B for 1 min, 10% to 95% mobile phase B for 1 min, 95% mobile phase B for 5 min. The column and autosampler temperatures were 50 °C and 4 °C, respectively. After 1.5 min, the LC eluant was diverted from waste to the mass spectrometer that was fitted with an electrospray ionization (ESI) source and operated in the positive ion mode. The ESI source settings for the ionization of the metabolites were as follows: electrospray voltage, 5.0 kV; vaporizer temperature, 420 °C; capillary temperature 360 °C; sheath gas pressure, 35 psi; auxiliary gas pressure, 10 psi. Quantification was performed by selected reaction monitoring (SRM) of the [M+H]^+ ion and the related product ion for each metabolite. The analytical data were processed using Xcalibur® software (ThermoFisher Scientific).
(§4) The IC50 values (concentration of inhibitor causing 50% inhibition of the original enzyme activity) were calculated using WinNonlin software, a non-linear regression analysis program (Pharsight, Mountain View, CA, USA). The apparent kinetic parameters for inhibitory potential (Ki values) were estimated from the fitted curves using Enzyme Kinetics Ver. 1.3 program (Systat Software Inc., San Jose, CA, USA).

CYP1A2 = target: T2, CYP1A2 (Homo sapiens, UniProt P05177); experiment: Kinetic analysis (Ki, inhibition type) in human liver microsomes: phenacetin O-deethylation; settings: pooled human liver microsomes
T2 construct: pooled human liver microsomes (0.25 mg/mL); tissue BD Gentest Co. H161; host or cells: pooled human liver microsomes
T2 sequence (P05177 1-516): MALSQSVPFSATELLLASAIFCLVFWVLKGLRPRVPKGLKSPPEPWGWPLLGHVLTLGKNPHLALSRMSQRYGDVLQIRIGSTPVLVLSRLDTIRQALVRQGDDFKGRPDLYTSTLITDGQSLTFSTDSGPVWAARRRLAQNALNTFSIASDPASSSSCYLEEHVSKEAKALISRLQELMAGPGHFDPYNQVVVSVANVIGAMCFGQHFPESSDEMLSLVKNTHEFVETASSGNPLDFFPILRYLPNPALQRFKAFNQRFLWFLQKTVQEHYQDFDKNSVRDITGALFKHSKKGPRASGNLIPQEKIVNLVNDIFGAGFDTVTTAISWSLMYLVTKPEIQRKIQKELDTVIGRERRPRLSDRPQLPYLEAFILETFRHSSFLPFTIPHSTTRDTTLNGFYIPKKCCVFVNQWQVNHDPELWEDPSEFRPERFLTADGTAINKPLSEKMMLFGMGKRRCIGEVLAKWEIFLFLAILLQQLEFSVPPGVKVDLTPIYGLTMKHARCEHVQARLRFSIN
Experimental: (§5) The Ki values and inhibition types (competitive, noncompetitive, uncompetitive, or mixed) were determined for eupatilin and jaceosidin using Lineweaver plots, Dixon plots, and secondary reciprocal plots.
(§6) The reactions were initiated by addition of NADPH at 37 °C and stopped after 15 min by placing the incubation tubes on ice and adding 100 μL of ice-cold methanol containing an internal standard. The incubation mixtures were centrifuged at 10,000' g for 5 min, and aliquots (5 μL) of the supernatants were analyzed by liquid chromatography/tandem mass spectrometry (LC/MS/MS).
as §3, §4

CYP2C8 = target: T3, CYP2C8 (Homo sapiens, UniProt P10632); experiment: Cocktail probe assay in pooled human liver microsomes: amodiaquine N-deethylation (IC50); settings: 2.0 μM amodiaquine, no preincubation
T3 construct: pooled human liver microsomes (0.25 mg/mL); tissue BD Gentest Co. H161; host or cells: pooled human liver microsomes
T3 sequence (P10632 1-490): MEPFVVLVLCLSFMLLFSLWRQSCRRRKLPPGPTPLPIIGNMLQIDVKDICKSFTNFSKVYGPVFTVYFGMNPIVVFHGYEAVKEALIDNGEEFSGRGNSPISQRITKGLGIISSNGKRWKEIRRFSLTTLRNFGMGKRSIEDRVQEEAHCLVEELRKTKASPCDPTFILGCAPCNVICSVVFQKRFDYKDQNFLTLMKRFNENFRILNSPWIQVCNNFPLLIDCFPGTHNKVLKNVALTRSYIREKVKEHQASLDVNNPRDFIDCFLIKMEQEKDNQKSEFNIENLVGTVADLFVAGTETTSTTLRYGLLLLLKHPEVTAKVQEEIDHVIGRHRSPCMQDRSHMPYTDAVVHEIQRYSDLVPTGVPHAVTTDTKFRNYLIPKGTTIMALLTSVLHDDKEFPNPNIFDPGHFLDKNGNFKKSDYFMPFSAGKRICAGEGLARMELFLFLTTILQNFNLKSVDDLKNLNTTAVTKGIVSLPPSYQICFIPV
Experimental: as §1, with “After incubation, the reaction was stopped by placing the tubes on ice and adding 100 μL of ice-cold acetonitrile containing internal standards (0.5 μg/mL [^13C,^15N]-acetaminophen for acetaminophen and N-desethylamodiaquine, 0.5 μg/mL [^2H5]-7-hydroxycoumarin for 7-hydroxycoumarin, 2.0 μg/mL [^13C6]-4-hydoxydiclofenac for 4-hydoxydiclofenac, 0.5 μg/mL [^2H3]-4'-hydoxymephenytoin for 4-hydoxymephenytoin and 1'-hydroxymidazolam, and 0.5 μg/mL [^2H7]-1'-hydroxybufuralol for 1'-hydroxybufuralol). The incubation mixtures were then centrifuged at 10,000× g for 5 min. All incubations were performedin triplicate.” left out
All seven metabolites produced from the cocktail of CYP isoform-specific substrates were simultaneously determined by LC/MS/MS. […] Quantification was performed by selected reaction monitoring (SRM) of the [M+H]^+ ion and the related product ion for each metabolite. […]

CYP2C19 = target: T4, CYP2C19 (Homo sapiens, UniProt P33261); experiment: Cocktail probe assay in pooled human liver microsomes: [S]-mephenytoin 4'-hydroxylation (IC50); settings: 50 μM [S]-mephenytoin
T4 construct: pooled human liver microsomes (0.25 mg/mL); tissue BD Gentest Co. H161; host or cells: pooled human liver microsomes
Experimental: as §1, §2
(§7) All seven metabolites produced from the cocktail of CYP isoform-specific substrates were simultaneously determined by LC/MS/MS. The system consisted of a tandem quadrupole mass spectrometer (TSQ Quantum Access, ThermoFisher Scientific, CA, USA) coupled with a Nanospace SI-2 LC system. The separation was performed on an Atlantis dC18 column (5 μm, 2.1 mm i.d. × 100 mm, Waters, Waltham, MA, USA) using the gradient elution of a mixture of 5% methanol in 0.1% formic acid (mobile phase A) and 95% methanol in 0.1% formic acid (mobile phase B) at a flow rate of 0.25 mL/min: 10% mobile phase B for 1 min, 10% to 95% mobile phase B for 1 min, 95% mobile phase B for 5 min. […] Quantification was performed by selected reaction monitoring (SRM) of the [M+H]^+ ion and the related product ion for each metabolite. […]

CYP2D6 [1] = target: T5, CYP2D6 (Homo sapiens, UniProt P10635); experiment: Kinetic analysis (Ki, inhibition type) in human liver microsomes: bufuralol 1'-hydroxylation; settings: pooled human liver microsomes
T5 construct: pooled human liver microsomes (0.25 mg/mL); tissue BD Gentest Co. H161; host or cells: pooled human liver microsomes
Experimental: as §5, §6, §3, §4

CYP3A = experiment: Cocktail probe assay in pooled human liver microsomes: midazolam 1'-hydroxylation (IC50); settings: for IC50, midazolam 1'-hydroxylation (CYP3A): pooled human liver microsomes, 2.5 μM midazolam
Experimental: as §1, §2, §3, §4

CYP2D6 [2] = target: T5, CYP2D6; experiment: Cocktail probe assay in pooled human liver microsomes: bufuralol 1'-hydroxylation (IC50); settings: 5.0 μM bufuralol
Experimental: as §1, §2, §7

[3] = with 30 min preincubation in presence of NADPH
[4] = Lineweaver, Dixon and secondary reciprocal plots

T5 sequence (P10635 whole entry): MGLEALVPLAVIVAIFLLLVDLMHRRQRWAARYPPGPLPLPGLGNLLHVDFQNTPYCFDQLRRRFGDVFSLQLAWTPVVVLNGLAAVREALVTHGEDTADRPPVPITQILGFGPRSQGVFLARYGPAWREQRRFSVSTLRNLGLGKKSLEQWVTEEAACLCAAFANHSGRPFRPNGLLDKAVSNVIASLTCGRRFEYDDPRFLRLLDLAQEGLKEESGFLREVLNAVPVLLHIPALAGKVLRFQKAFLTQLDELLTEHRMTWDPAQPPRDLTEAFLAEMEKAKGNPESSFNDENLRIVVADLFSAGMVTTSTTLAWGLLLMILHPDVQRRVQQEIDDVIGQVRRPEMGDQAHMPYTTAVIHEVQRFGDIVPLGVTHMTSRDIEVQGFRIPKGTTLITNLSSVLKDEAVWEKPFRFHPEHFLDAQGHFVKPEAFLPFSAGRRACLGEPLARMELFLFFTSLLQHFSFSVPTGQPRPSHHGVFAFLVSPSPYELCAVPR
T4 sequence (P33261 whole entry): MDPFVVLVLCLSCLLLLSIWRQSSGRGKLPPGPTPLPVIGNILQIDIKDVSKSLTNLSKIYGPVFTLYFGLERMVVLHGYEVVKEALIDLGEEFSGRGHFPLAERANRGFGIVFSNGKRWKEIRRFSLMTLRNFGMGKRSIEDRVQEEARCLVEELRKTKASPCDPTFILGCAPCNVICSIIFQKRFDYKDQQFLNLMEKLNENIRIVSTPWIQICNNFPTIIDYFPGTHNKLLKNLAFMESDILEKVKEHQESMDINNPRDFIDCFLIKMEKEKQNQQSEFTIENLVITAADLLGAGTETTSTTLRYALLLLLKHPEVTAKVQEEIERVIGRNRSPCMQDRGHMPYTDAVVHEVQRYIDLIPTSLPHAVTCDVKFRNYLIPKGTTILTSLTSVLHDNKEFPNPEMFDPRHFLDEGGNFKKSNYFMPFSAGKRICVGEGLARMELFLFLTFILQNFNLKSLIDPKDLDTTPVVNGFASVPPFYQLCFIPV

Structure (SMILES): COc1cc(-c2cc(=O)c3c(O)c(OC)c(O)cc3o2)ccc1O [jaceosidin, 5,7-dihydroxy-2-(4-hydroxy-3-methoxyphenyl)-6-methoxychromen-4-one]
- IC50, coumarin 7-hydroxylation (CYP2A6) (CYP2A6; no preincubation): No inhibition
- IC50, coumarin 7-hydroxylation (CYP2A6) (CYP2A6; [3]): No inhibition
- Ki (CYP1A2; 10-100 μM phenacetin): 3.8 ± 0.23 µM
- Inhibition type, phenacetin O-deethylation (CYP1A2) (CYP1A2; [4]): competitive
- IC50 (CYP2C8): > 100 µM
- IC50 (CYP2C19; no preincubation): 64.9 ± 4.8 µM
- IC50 (CYP2C19; [3]): 69.8 ± 3.8 µM
- Ki (CYP2D6 [1]; 0.5-5 μM bufuralol): 57.8 ± 3.6 µM
- Inhibition type, bufuralol 1'-hydroxylation (CYP2D6) (CYP2D6 [1]; [4]): competitive
- Inhibition of CYP3A4-catalyzed midazolam 1'-hydroxylation at the highest concentration tested (CYP3A; 100 μM, human liver microsomes): negligible inhibition
- IC50, midazolam 1'-hydroxylation (CYP3A) (CYP3A; no preincubation): No inhibition
- IC50, midazolam 1'-hydroxylation (CYP3A) (CYP3A; [3]): No inhibition
- IC50 (CYP2D6 [2]; no preincubation): 79.1 ± 1.8 µM
- IC50 (CYP2D6 [2]; [3]): 82.3 ± 2.4 µM
